For one data set, the system named is ZIKV H/PF/2013. Briefly: Plaque assay, infectious titers of WT ZIKV H/PF/2013 from Huh7.5 cells. The format is cell-based, Zika virus (ZIKV). The conditions noted are these: treated 2 hpi, supernatant 48 h later.
In data set [1] the test system is DENVR2A. The experiment in a line: microbe, parasite or virus in culture. To be noted: Dengue virus, Huh7.5, read-out: EC50 (μM) for DENVR2A.
Data set [2] concerns ZIKVR2A. The experiment in a line: microbe, parasite or virus in culture. The conditions noted are these: Zika virus, Huh7.5, read-out: EC50 (μM) for ZIKVR2A, Huh7.5 cells, luciferase at 48 hpi.
Data set [3] in a line: Cell viability (ATP, Cell-Titer GLO) in Huh7.5 cells. To be noted: human. In kind it is cell-based. The method, then: Where indicated for Huh7.5 and Vero E6 cells and PBMCs, cell viability was measured by monitoring of cellular ATP levels using the Cell-Titer GLO assay kit (Promega). Briefly, 10× 10^3 to 20 × 10^3 cells in 50 to 100 μl were seeded in 48-well or 96-well plates and cultured overnight. AAs were added at the designated concentrations for 24 or 48 h, as specified in the text. Then, 50 to 100 μl of room temperature Cell-Titer GLO reagent was added in each well to room temperature-equilibrated cell plates. Plates were rocked for 2 min and rested for 10 min, and the luminescence signal was measured using a microplate spectrophotometer (Biotek Synergy H1 or Tecan Spark multimode microplate reader). Viability was expressed as a fold change calculated using the value of DMSO-treated cells at each concentration; for each AA and CC50, values were determined.

The subject of data set [4] is DENVR2A. To be noted: CC50/EC50, Huh7.5.
For data set [5], the system named is DENVGFP. The experiment in a line: DENVGFP reporter virus infection of Huh7 cells (flow cytometry / microscopy). To be noted: for anti-DENV activity in screening (GFP microscopy, words): Huh7, treated 2 h before DENVGFP MOI 0.15, 72 hpi, at the chosen concentration. A general note: A flow cytometer gives signals particle by particle.
Data set [6] concerns DENVGFP. Briefly: Time-of-drug-addition and -removal assays, DENVGFP in Huh7 cells. The format is cell-based, dengue virus (DENV). To be noted: Huh7, treated 2 h prior to infection, removed 2 hpi, microscopy. The method, then: For the time-of-drug-addition assay, at the time of infection, AAs were added in wells corresponding to 0 h. At 2 hpi, viral inoculum was removed from every well, and AAs were added back to wells corresponding to 0 h and 2 h. At 4, 7, 12, and 24 hpi, AAs or DMSO diluted in DMEM was added to the appropriate wells. After 72 h, cells were trypsinized and fixed in 4% formaldehyde to measure the percentage of infected cells on an FC500 MPL cytometer. Alternatively, pictures of Hoechst 33342-stained cells were acquired on an Axio Observer microscope. All assays were performed in triplicate.
At 2 hpi, plates were washed, and medium was replaced to remove remaining viruses in the supernatant. AAs were added back to all wells, except the ones corresponding to 2 h of treatment, in which fresh medium exclusive of any AA was added. Accordingly, after 4, 7, and 12 h of infection, the supernatant was replaced by fresh medium in corresponding wells. After 72 h of incubation, results were acquired as for the time-of-drug-addition assay. All assays were performed in triplicate.

Data set [7] relates to ZIKVR2A. The conditions noted are these: for SI ZIKVR2A (therapeutic selectivity index): CC50/EC50, Huh7.5; for ZIKVR2A replication: Huh7.5 cells.
For a further data set, the system named is DENV2 16881s. Briefly: Plaque assay, infectious titers of WT DENV2 16881s from Huh7.5 cells. In kind it is cell-based, dengue virus (DENV). To be noted: AAs 50 μM, treated 2 hpi, supernatant 48 h later. The method, then:
Huh7.5 cells were infected with DENV 16881s, ZIKV H/PF/2013, or ZIKV MR766 (MOI, 0.1) or left uninfected. […] Supernatants were harvested 2 days pi, and PFU were determined by plaque assay on VeroE6 cells. Cells incubated overnight (2 × 10^5 cells/well in 24-well plates) were infected with 10-fold serially diluted virus-containing supernatants for 2 h at 37°C. Inoculum was then replaced with MEM (Life Technologies) containing 1.5% carboxymethylcellulose (Millipore-Sigma). ZIKV- and DENV-infected cells were incubated for 5 and 7 days, respectively. One volume of 10% formaldehyde was added to the cells for fixation. Two hours later, cells were washed with tap water and stained with a 1% crystal violet/10% ethanol solution for 30 min. Wells were rinsed with tap water, and the number of plaques were counted to calculate virus titers.

In another data set the test system is ZIKV MR766. The experiment in a line: Plaque assay, infectious titers of WT ZIKV MR766 from Huh7.5 cells. The format is cell-based, Zika virus (ZIKV). To be noted: treated 2 hpi, supernatant 48 h later.
A further data set deals with Huh7 cells. Briefly: XTT cytotoxicity assay in Huh7 cells. In kind it is cell-based, human. The conditions noted are these: 0.4 to 400 μM, 72 hours. The method, then: Cytotoxicity properties were titrated by metabolism monitoring using the XTT [2,3-bis-(2-methoxy-4-nitro-5-sulfophenyl)-2H-tetrazolium-5-carboxanilide] assay kit (Roche, Millipore Sigma), as described before ([24]). Briefly, Huh7 cells were seeded at 10 × 10^3 cells per well in 96-well plates. […] After 72 h of incubation, medium was replaced by phenol-free DMEM (Wisent) containing 0.3 mg/ml XTT, and cells were incubated for 4 h. Absorbance was measured at 450nm using a microplate spectrophotometer (Synergy H1, Biotek). Treatment conditions with 0.5% DMSO were used as the reference control. The percentage of cell viability was calculated at each concentration.
(In general: Tetrazolium assays rely on reduction of a dye to a coloured formazan, in cell work by metabolically active cells.)

By EC50 is commonly meant the concentration giving half of the maximal effect. As usually defined, the CC50 is the concentration giving 50% cytotoxicity.

The structures appear in SMILES notation. Entries after “also recorded” stand apart in the source; their conditions may differ. Where two headings read alike, the source gives them in different places.

Turning to `O=c1c2cc3c(cc2c2cccc4ccn1c42)OCO3` [Hippadine, hippadine], in the data set with ZIKV H/PF/2013 (AAs 50 μM), the “decrease in ZIKV H/PF/2013 viral titer” value stood at 3 fold and the “decrease in ZIKV H/PF/2013 viral titers” value was 70%. In the data set on DENVR2A [1], the EC50 was determined as 73.8 µM. Moreover, in the data set on ZIKVR2A [2], the EC50 is 114 µM. In data set [3] (Huh7.5 cells, Huh7.5, ATP, 48 h posttreatment, read-out: CC50), the CC50 at 48 h turned out to be 176 µM. Besides, in the data set on DENVR2A [4], the “SI DENVR2A (therapeutic selectivity index)” value was found to be 2.38. In the data set on DENVGFP [5], the “anti-DENV activity in screening (GFP microscopy, words)” value (shortened to “anti-DENV activity in screening”) is recorded as “moderate”. Moreover, the “infection after removal of compound 2 hpi vs continuous treatment” value (shortened to “infection … vs continuous treatment”) in the data set with DENVGFP [6] is recorded as “restored virus replication completely”. Moreover, in the data set with ZIKVR2A [7], the “SI ZIKVR2A (therapeutic selectivity index)” value is recorded as 1.54 and the “ZIKVR2A replication” value is on record as “did not significantly impact ZIKVR2A replication”. The “production of DENV infectious particles (words)” value in the data set with DENV2 16881s is given as “little effect”. For the same compound, in the data set on DENV2 16881s (listed as hippadine), the “production of DENV infectious particles (words)” value is on record as “no effects on DENV production”. For the same compound, the “production of ZIKV MR766 infectious particles (words)” value in the data set on ZIKV MR766 was “little effect”. In addition, the “cytotoxic activity of AAs” value with Huh7 cells is recorded as “cytotoxic”.

In the case of `COc1ccc([C@@H]2CN(C)Cc3cc(O)c(OC)cc32)cc1O` [Gigantellinine, gigantellinine], the “production of ZIKV H/PF/2013 infectious particles (words)” value was “little effect” in the data set on ZIKV H/PF/2013 and “marginal effects on ZIKV production” in the data set with ZIKV H/PF/2013 (listed as gigantellinine). Moreover, the EC50 in the data set with DENVR2A [1] is 105 µM; in the data set with ZIKVR2A [2] it was over 250 µM. The half-maximal cytotoxic concentration (CC50) at 48 h in data set [3] is over 250 µM. Moreover, in the data set on DENVR2A [4], the “SI DENVR2A (therapeutic selectivity index)” value is listed as over 2.3. The “anti-DENV activity in screening” value in the data set with DENVGFP [5] was “moderate”. Also, the “infection … vs continuous treatment” value in the data set on DENVGFP [6] is on record as “restored virus replication completely”. Further, the “ZIKVR2A replication” value with ZIKVR2A [7] is listed as “did not significantly impact ZIKVR2A replication”. In addition, the figures for the “production of DENV infectious particles (words)” value in the data set with DENV2 16881s and with DENV2 16881s (listed as gigantellinine) were “little effect” and “no effects on DENV production”, respectively. Moreover, the “production of ZIKV MR766 infectious particles (words)” value with ZIKV MR766 is reported as “little effect”; with ZIKV MR766 (listed as gigantellinine) it was “marginal effects on ZIKV production”.

As to `COc1cc2c(cc1OC)[C@@H](c1ccc(O)cc1)CN(C)C2` [Gigantelline, gigantelline], in the data set with DENVGFP [5], the “anti-DENV activity in screening” value is on record as “weak”.

With `CN1CC[C@@]23C=C[C@H](O)C[C@@H]2Oc2c(O)ccc(c23)C1` [Sanguinine, sanguinine], the “anti-DENV activity in screening” value in the data set with DENVGFP [5] is reported as “very weak”. Further, in the data set on DENVGFP [6], the “infection … vs continuous treatment” value is “restored virus replication completely”.

Regarding `NC(=O)c1ncn([C@@H]2O[C@H](CO)[C@@H](O)[C@H]2O)n1` [ribavirin, reference compound], in the data set with DENVGFP [5] (Dengue virus, Huh-7, read-out: EC50, DENVGFP infection), the EC50 was 100 µM.

Regarding `OC1CC2N3CCC2(c2cc4c(cc2C3)OCO4)C2OC12` (stereo not shown) [Flexinine, flexinine], the “production of ZIKV H/PF/2013 infectious particles (words)” value with ZIKV H/PF/2013 is “marginal effects on ZIKV production; also recorded: little effect”. Also, the EC50 with DENVR2A [1] stood at 63.4 µM; in the data set on ZIKVR2A [2] it was 216 µM. Further, in data set [3], the CC50 at 48 h was over 250 µM. The “SI DENVR2A (therapeutic selectivity index)” value with DENVR2A [4] is over 3.9. Moreover, in the data set with DENVGFP [5], the “anti-DENV activity in screening” value is “moderate”. Besides, the “infection … vs continuous treatment” value in the data set on DENVGFP [6] is “restored virus replication completely”. Also, the “SI ZIKVR2A (therapeutic selectivity index)” value with ZIKVR2A [7] is on record as over 1.15. In addition, the “ZIKVR2A replication” value in the data set on ZIKVR2A [7] was “did not significantly impact ZIKVR2A replication”. For the same compound, the “production of DENV infectious particles (words)” value in the data set with DENV2 16881s was “no effects on DENV production; also recorded: little effect”. Moreover, in the data set with ZIKV MR766, the “production of ZIKV MR766 infectious particles (words)” value is on record as “marginal effects on ZIKV production; also recorded: little effect”.

For `O[C@H]1C=C[C@@]23CCN(Cc4cc5c(cc42)OCO5)[C@@H]3C1` [Crinine, crinine], the “infection … vs continuous treatment” value with DENVGFP [6] was “restored virus replication completely”.
